The text below walks through data of US20150320773A1, “TREATMENT OF INFLAMMATION” (Vascular Biogenics Ltd., priority 2011, published 2015).

The subject of data set [1] is Human monocytes (CD14+ cells). The experiment in a line: In vitro cell migration (trans-well chemotaxis) assay of human monocytes. The data set is classed as cell-based. As to conditions: for reduction of monocyte chemotaxis towards MCP-1 and RANTES (50 ng/ml each): 30 min pre-incubation, PC 5 μg/ml, partially oxidized PAPC 40 μg/ml, PGPC 5 μg/ml, VB-201 5 μg/ml. How it is done:
Following incubation, cells were loaded to the upper chamber and allowed to migrate for 3.5 hours towards 0.5% fetal bovine serum/RPMI-1640 medium supplemented with recombinant human MCP-1 and RANTES (50 ng/ml each).
In order to further ascertain the significance of ERK1/2 phosphorylation and MEK1/2 phosphorylation to monocyte chemotaxis, the effect of the RAF inhibitor GW5074, which reduces MEK and ERK phosphorylation, on monocyte chemotaxis was determined in a trans-well migration assay using a combination of MCP-1 ([…]) and RANTES (70 ng/ml) as attractant. Monocytes were pre-treated with 5 μM GW5074 for 30 minutes prior to seeding in the migration chamber.
For this purpose, monocytes from healthy donors were pre-incubated for 30 min with either solvent (0.005% ethanol/PBS), phosphatidylcholine (PC; 5 μg/ml), partially oxidized PAPC (24 h oxidation; 40 μg/ml) or PGPC (5 μg/ml), and allowed to migrate towards recombinant human MCP-1 (CCL2; ligand for CCR2) and RANTES (CCL5; ligand for CCR1, CCR3, CCR5, US28) as attractants (50 ng/ml each). […]

The target of the next data set is T1, TLR4 (Mus musculus, UniProt Q9QUK6).
T1 sequence (Q9QUK6 26-835): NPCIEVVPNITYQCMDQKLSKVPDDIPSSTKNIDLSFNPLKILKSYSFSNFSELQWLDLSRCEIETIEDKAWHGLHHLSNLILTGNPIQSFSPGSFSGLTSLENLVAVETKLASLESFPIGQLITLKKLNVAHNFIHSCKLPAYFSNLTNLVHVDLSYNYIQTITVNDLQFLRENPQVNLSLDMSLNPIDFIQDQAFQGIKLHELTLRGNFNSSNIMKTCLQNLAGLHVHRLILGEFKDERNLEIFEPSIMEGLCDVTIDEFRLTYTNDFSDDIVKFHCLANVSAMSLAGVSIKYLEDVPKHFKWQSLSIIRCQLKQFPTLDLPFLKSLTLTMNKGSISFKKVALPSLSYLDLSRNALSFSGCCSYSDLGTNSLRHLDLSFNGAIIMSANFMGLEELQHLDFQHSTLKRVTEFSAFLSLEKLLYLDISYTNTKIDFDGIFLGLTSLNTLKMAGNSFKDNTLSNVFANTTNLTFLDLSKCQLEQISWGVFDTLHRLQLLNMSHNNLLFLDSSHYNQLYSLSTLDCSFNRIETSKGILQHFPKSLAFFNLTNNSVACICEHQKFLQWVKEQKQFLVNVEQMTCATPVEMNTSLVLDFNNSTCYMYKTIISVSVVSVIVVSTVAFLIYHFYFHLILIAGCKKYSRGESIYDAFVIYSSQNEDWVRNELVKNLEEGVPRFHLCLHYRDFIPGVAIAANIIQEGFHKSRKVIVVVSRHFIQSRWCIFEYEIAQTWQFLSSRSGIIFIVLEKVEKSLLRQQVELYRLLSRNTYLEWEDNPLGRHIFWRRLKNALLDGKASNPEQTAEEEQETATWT
T1 sequence (Q9JHF9 19-160 partner): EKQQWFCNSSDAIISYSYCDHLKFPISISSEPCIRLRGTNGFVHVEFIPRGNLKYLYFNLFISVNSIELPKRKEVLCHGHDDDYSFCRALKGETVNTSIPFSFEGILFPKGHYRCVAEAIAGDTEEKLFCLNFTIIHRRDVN
As to conditions: RAW 264.7 murine macrophages.

The subject of the next data set is THP-1 cells. Briefly: Trans-well chemotaxis assay of THP-1 cells. It counts as cell-based, human. As to conditions: Wortmannin 1 μmol/L, Rapamycin 1.1 μmol/L, GW5074 1 μmol/L.
The test system of the next data set is human monocytes. Briefly: ROS formation in human monocytes (DCF, FACS). The data set is classed as cell-based. As to conditions: overnight; VB-201 10 μg/ml, PGPC 10 μg/ml, OxPAPC 100 μg/ml; relative to PBS. The protocol:
Detection of ROS was performed through FACS quantification of the oxidation product dichlorodihydrofluorescein (DCF). Data are mean±SD from 3-4 experiments performed in duplicates. FIG. 23B is a histogram from a representative experiment showing DCF levels in treated cells.

Method for THP-1 cells: For chemo-attraction of monocytes, RANTES (100 ng/ml), MIP-1α (50 ng/ml) or MCP-1 (50 ng/ml) were dissolved in 0.5% fetal bovine serum(FBS)/RPMI-1640 medium and placed at the lower chamber of QCM™ 24-well migration assay plate (Corning-Costar; 5 μm pores). For chemo-attraction of CD4+ cells, 0.5% FBS/RPMI-1640 solution containing RANTES (100 ng/ml) and SDF-1α (50 ng/ml) was used, using the same plate setting. Migration assay was conducted by seeding 300,000 treated cells in the upper chamber, followed by incubation of 3-4 hours. Subsequently, the number of cells which migrated to the medium in the lower compartment was determined by FACS.
Data are mean f SD from 4 experiments in triplicates, normalized to untreated cells. **, p<0.001.
Method for TLR4: Cells were washed and re-suspended in lysis buffer containing 1:100 dithiothreitol (DTT) (Bio-Lab), and phosphatase and protease inhibitors (Thermo Scientific). Samples were loaded on a precasted Criterion TGX gel (BIO-RAD, UK) and transferred onto nitrocellulose membrane. Blots were blocked with 5% milk or bovine serum albumin (BSA) in TBST (Tris buffer saline with TWEEN 20) for 1 hour, followed by incubation with primary and secondary antibodies. Membranes were developed using the ECL kit (Thermo Scientific).
Toll-like receptors were activated in mouse BMDCs (bone marrow dendritic cells) by specific agonists, and the effect of receptor activation was determined via Western blot for phosphorylation of p38 MAP kinase, which is downstream of TLRs.

Take “phosphatidylcholine [PC, reference compound]”: in data set [1], the “reduction of monocyte chemotaxis towards MCP-1 and RANTES (50 ng/ml each)” value is on record as “did not reduce the number of migrating cells”.

In the case of `CCCCCCCCOC[C@H](COP(=O)([O-])OCC[N+](C)(C)C)OCCCCC(=O)O` [VB-207, (R)-1-octyl-2-(4′-carboxyl)butyl-sn-glycero-3-phosphocholine], the LPS-induced signaling entry at TLR4 was “neither VB-207 nor OB-VB207 exhibited such an inhibitory effect”. `O=C1Nc2ccc(I)cc2C1=Cc1cc(Br)c(O)c(Br)c1` [GW5074, 3-(3,5-dibromo-4-hydroxy-benzylidene)-5-iodo-1,3-dihydro-indol-2-one, reference compound]: the “reduction of monocyte migration” value in data set [1] (5 μM GW5074, 30 minutes, MCP-1 (50 ng/nl) and RANTES (70 ng/ml)) is “about 80%”. Moreover, the “chemotaxis of THP-1 cells in vitro” value in the data set on THP-1 cells was “decrease chemotaxis of THP-1 cells”.

`CCCCCCCCCCCCCCCC(=O)OCC(COP(=O)([O-])OCC[N+](C)(C)C)OC(=O)CCCC(=O)O` (stereo not drawn) [PGPC, 1-palmitoyl-2-glutaryl-phosphatidylcholine, reference compound]: the “reduction of monocyte chemotaxis towards MCP-1 and RANTES (50 ng/ml each)” value in data set [1] was around 50%. Besides, the “ROS formation in human monocytes” value in the data set with human monocytes was “no effect on ROS formation”.
